Data taken from patent publication US20140128418A1, “PYRAZOLE DERIVATIVES, PREPARATION METHOD THEREOF, AND COMPOSITION FOR PREVENTING AND TREATING OSTEOPOROSIS CONTAINING SAME” (EWHA UNIVERSITY-INDUSTRY COLLABORATION FOUNDATION, priority 2011, published 2014).

Columns and labels:
[1] = tested on: differentiation of macrophages into osteoclasts; assay: Inhibitory effect on differentiation of macrophages into osteoclasts (rhM-CSF/RANKL, TRAP staining); assay type: cell-based, mice (C57BL/6J); conditions: mouse bone marrow macrophages, rhM-CSF 30 ng/mL + RANKL 200 ng/mL, 5 days, light microscope, Examples 2, 3, 7, 8, 9, 11 tested against Comparative Example 1 as control, FIGS. 1 to 6
Experimental: Bone marrow cells were harvested from 4 to 5-week old male mice (C57BL/6J). Specifically, mice were sacrificed by cervical dislocation, and femur and tibia were extracted while removing muscles adhered around the bone with scissors and soaked in phosphate buffered saline (PBS). A 1 mL syringe filled with α-minimum essential medium (α-MEM) was put into one end of the femur and tibia from which bone marrow cells were then harvested.
The bone marrow cells were cultured to obtain macrophages. Specifically, the obtained bone marrow cells were placed in a 50 mL tube and centrifuged at 1500 rpm for 5 minutes. Then, the supernatant was removed, and a 3:1 mixture of a Gey's solution and PBS was added and maintained at room temperature for about 2 to 3 minutes. After another centrifugation (1500 rpm, 5 minutes), the supernatant was removed, α-MEM was added, followed by stirring, and then the cells were cultured in a 10 cm cell culture dish at 37° C. for 24 hours. After the third centrifugation (1500 rpm, 5 minutes), the supernatant was removed, a culture medium and a macrophage differentiation factor rhM-CSF (30 ng/mL) were added, and then the cells were cultured in a 10 cm cell culture dish at 37° C. for 3 days. After 3 days, macrophages adhered to the dish were scraped and collected in a tube, followed by centrifugation (1500 rpm, 5 minutes). […]

[2] = tested on: bone loss induced by ovariectomy; assay: Inhibitory effect on bone loss induced by ovariectomy in ovariectomized mouse models (tibia, μ-CT, TRAP staining); assay type: in vivo, female mice; conditions: ovariectomized mice, intraperitoneal for 3 weeks at intervals of 2 days, versus control group 1 (ovariectomy)
Source text: In order to examine the inhibitory effects of the compounds on the bone loss induced by ovariectomy in ovariectomized mouse models, 8-week old female mice were divided into control groups 1 and 2 and experimental group 1, each containing 5 mice.
The mice in control group 1 and experimental group 1 were subjected to ovariectomy via laparotomy, and the mice in control group 2 were subjected to laparotomy in the same manner as in control group 1 and experimental group 1, but without ovariectomy, and served as a sham control.
The compound of Example 13 was intraperitoneally administered to the mice of experimental group 1 for 3 weeks at intervals of 2 days after 7 days of recovery from the surgery. After verification of excision of ovary of mice, both tibiae were harvested from the mice of experimental group 1 and control groups 1 and 2, and cross-sections were consecutively imaged using μ-CT (Skyscan 1076, SKYS CAN N. V.) and V-works program (Cybermed) and reconstructed into 3-dimensional images. Then, the bone volume, bone density, and the number of trabecular bones were quantified using an image analysis program.
The experimental results and statistical analysis using ANOVA (one-way analysis of variance) if verify the Newman kulseu (Newman-Keuls test) significance is verified using the […] level or less, a significance test was performed.
In FIG. 9, the bone volume is expressed as a percentage (BV/TV %) of the bone volume (BV) of the harvested tibia to the total bone volume (TV), and in FIG. 11, the number of trabecular bones is expressed as the number of trabecular bones) per 1 millimeter (mm).
Moreover, the harvested tibiae were placed in PBS, formaldehyde added, and fixed for 24 hours and then decalcified in PBS to which was added 0.5 M EDTA. […] Moreover, the number of osteoclasts was analyzed under a microscope using the Osteomeasure software program (Osteometrics Inc., USA), and the results are shown in FIG. 13, in which the quantification of osteoclasts is expressed as the number of osteoclasts per bone surface 1 millimeter (mm). […]

Row | SMILES | differentiation of macrophages into osteoclasts [1] | reduction in bone volume of the tibia (BV/TV %) ([2]; FIG. 9) | bone density of the tibia ([2]; FIG. 10) | number of trabecular bones (per 1 mm) ([2]; FIG. 11)
1 | Oc1cc(-c2ccccc2)nn1-c1ccccn1 [Comparative Example 1, 3-phenyl-1-(pyridin-2-yl)-1H-pyrazol-5-ol] | more macrophages differentiated into osteoclasts | – | – | –
2 | COc1cc(/C=C/c2nn(-c3ccccn3)c(O)c2Cc2ccccc2)ccc1O [Example 13, 1-(pyridin-2-yl)-3-[(3-methoxy-4-hydroxyphenyl)-E-ethenyl]-4-benzyl-1H-pyrazol-5-ol] | – | less than that in control group 1 | higher | higher
